The results in this text go back to patent US20100292231A1, “Indazole Compounds for Treating Inflammatory Disorders, Demyelinating Disorders and Cancers” (priority 2007, published 2010).

Numbering of substitutions follows the chain as printed. A value given as a limit tells only on which side of the number the result lay.

Common to all, as to assay: MTS cellular proliferation assay
Holding throughout (format): cell-based
(In general: Tetrazolium dyes change colour on reduction, which living cells bring about.)

One test deals with T1, BaF3-D835Y (Homo sapiens, UniProt P36888, D835Y, cells depend on it).
T1 sequence (P36888 1-993 D835Y): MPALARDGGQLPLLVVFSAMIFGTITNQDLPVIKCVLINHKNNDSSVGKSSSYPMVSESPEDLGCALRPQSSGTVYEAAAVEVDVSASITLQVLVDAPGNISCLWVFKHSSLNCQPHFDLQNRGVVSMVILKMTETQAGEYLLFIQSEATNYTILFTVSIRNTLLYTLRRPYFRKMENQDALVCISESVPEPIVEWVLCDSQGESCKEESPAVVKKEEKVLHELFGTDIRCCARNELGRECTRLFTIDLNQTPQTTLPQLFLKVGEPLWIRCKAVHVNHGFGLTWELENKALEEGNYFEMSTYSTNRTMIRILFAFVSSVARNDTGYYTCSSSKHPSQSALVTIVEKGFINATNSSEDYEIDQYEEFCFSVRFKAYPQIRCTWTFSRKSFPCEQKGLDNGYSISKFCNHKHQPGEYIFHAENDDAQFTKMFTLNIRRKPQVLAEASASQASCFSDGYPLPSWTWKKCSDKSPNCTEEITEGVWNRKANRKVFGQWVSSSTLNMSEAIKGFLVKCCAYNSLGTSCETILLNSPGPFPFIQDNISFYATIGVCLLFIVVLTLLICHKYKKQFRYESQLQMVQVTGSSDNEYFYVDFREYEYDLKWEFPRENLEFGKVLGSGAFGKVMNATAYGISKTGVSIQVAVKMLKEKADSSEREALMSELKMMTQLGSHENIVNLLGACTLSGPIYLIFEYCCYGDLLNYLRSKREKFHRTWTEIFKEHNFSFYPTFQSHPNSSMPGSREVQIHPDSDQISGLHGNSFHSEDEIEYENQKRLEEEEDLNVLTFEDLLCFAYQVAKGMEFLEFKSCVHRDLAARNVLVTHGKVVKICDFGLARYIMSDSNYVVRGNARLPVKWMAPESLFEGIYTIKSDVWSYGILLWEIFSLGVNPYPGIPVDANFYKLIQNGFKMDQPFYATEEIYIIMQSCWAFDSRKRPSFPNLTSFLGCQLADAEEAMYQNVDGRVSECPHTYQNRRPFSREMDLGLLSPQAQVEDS
Particulars: 72 hour incubation, read-out: Growth inhibitory activity (in vivo EC50 nM). From the text:
(§1) The viability of Flt3 expressing cells can be evaluated using a tetrazolium salt reduction cell-based assay. […] BaF3, both wild type and mutant, as well as transfected strains, MV4-11 and MOLM14 are well-characterized Flt3-dependent humanized or human cell lines which express active Flt3 receptors (see, Yee et al. Blood (2002)100 (8):2941-2949; Levis et al. (2002) 99(11): 3885-3891). These cell lines were used to determine the ability of the compounds provided herein to inhibit Flt3 in intact cells. In each case, and by methods known to those practiced in the art of cell culture, proliferation was measured after 72 hour incubation with the compounds provided herein using a standard MTS protocol (Promega Cat #5430 “Cell Titer 96 Aqueous Non-radioactive Cell Proliferation Assay”).
(§2) In general, cells were plated at 10,000-20,000 cells per well in DMEM medium with 0.5% serum. The compound plate was set up by aliquoting into column 1 of a 96 well 300 ul polypropylene plate, the negative control (DMSO), aliquoting into column 12 the positive control and titrating the test compound in serial dilutions into columns 2-1 l. An aliquot from each well of the compound plate was transferred to the plated cells and then incubated @ […] in 5% CO2. [00538] MTS tetrazolium compound (Owen's reagent) was thawed in a H2O bath. 20 μl of MTS tetrazolium was added to each well of optical plate and the cells were incubated @ 37° C. in 5% CO2 for 2 hours. The absorbance measured at 490 nm using a microplate reader.

In a further test the test system is BaF3-FLT3-WT + IL-3. To be noted: 72 hour incubation, read-out: Growth inhibitory activity (in vivo EC50 nM).
Text: as §1, §2

For a further test, the target named is T2, BaF3-ITD (Homo sapiens, UniProt P36888, cells depend on it, form not given).
T2 sequence (P36888 1-993): T1 sequence (P36888 1-993 D835Y) with Y835D
Particulars: 72 hour incubation, read-out: Growth inhibitory activity (in vivo EC50 nM).
Text: as §1, §2

The next test has as its system MOLM14. Particulars: Homo sapiens, MOLM-14, 72 hour incubation, read-out: Growth inhibitory activity (in vivo EC50 nM).
Text: as §1, §2

By EC50 is commonly meant the concentration at which the effect is half-maximal. Regarding `CN(C)CCCCCNc1ccc2ncn3c4ccc5[nH]ncc5c4c(=O)c1c23` [(III)], the half-maximal effective concentration (EC50) on BaF3-D835Y is 887 nM; on BaF3-ITD, 223 nM. For the same compound, the IC50 with BaF3-FLT3-WT + IL-3 worked out at 752 nM.

On to `CN(C)c1ccc2ncn3c4ccc5[nH]ncc5c4c(=O)c1c23` [(IX)], for which the EC50 at BaF3-D835Y stood at 723 nM; at BaF3-ITD it was 80 nM; in the test on MOLM14, 82 nM. Also, in the test on BaF3-FLT3-WT + IL-3, the IC50 was more than 2000 nM.

Regarding `CCN(CC)c1ccc2ncn3c4ccc5[nH]ncc5c4c(=O)c1c23` [(VI)], the concentration giving a half-maximal response (EC50) on BaF3-D835Y is 171 nM; at BaF3-ITD, 74 nM; in the test on MOLM14, 84 nM. Besides, in the test on BaF3-FLT3-WT + IL-3, the IC50 is 1390 nM.

For the compound `CNc1ccc2ncn3c4ccc5[nH]ncc5c4c(=O)c1c23` [(VII)], the values for the EC50 on BaF3-D835Y, on BaF3-ITD and in the test with MOLM14 were 158 nM, 36 nM and 60 nM, respectively. Moreover, the IC50 with BaF3-FLT3-WT + IL-3 came to 356 nM.

On to `CCN(CC)CCNc1ccc2ncn3c4ccc5[nH]ncc5c4c(=O)c1c23` [(VIII)], for which the EC50 came to 129 nM at BaF3-D835Y, 30 nM at BaF3-ITD and 627 nM with MOLM14. Also, the IC50 with BaF3-FLT3-WT + IL-3 was determined as 341 nM.

As to `O=c1c2c(NCCCN3CCOCC3)ccc3ncn(c4ccc5[nH]ncc5c14)c32` [(X)], the EC50 stood at 79 nM at BaF3-D835Y, 35 nM at BaF3-ITD and 90 nM with MOLM14. Moreover, in the test with BaF3-FLT3-WT + IL-3, the IC50 was determined as 492 nM.

Consider `CN(C)CCCNc1ccc2ncn3c4ccc5[nH]ncc5c4c(=O)c1c23` [Compound (IV)], for which the figures for the EC50 on BaF3-D835Y and at BaF3-ITD were 13 nM and 20 nM, respectively. Moreover, the IC50 with BaF3-FLT3-WT + IL-3 was 6 nM.

For `O=c1c2c(NCCN3CCOCC3)ccc3ncn(c4ccc5[nH]ncc5c14)c32` [Compound (V)], the values for the EC50 on BaF3-D835Y, at BaF3-ITD and with MOLM14 were 172 nM, 90 nM and 333 nM, respectively. In the test with BaF3-FLT3-WT + IL-3, the IC50 is 246 nM.

On to `CCN(CC)CCNc1ccc2ncn3c4ccc(O)cc4c(=O)c1c23` [Symadex, 5-(2-(diethylamino)ethylamino)-8-hydroxy-6H-imidazo[4,5,1-de]acridin-6-one, reference compound], for which the EC50 was 8.9 nM at BaF3-D835Y and 11.2 nM at BaF3-ITD. In the test with BaF3-FLT3-WT + IL-3, the IC50 turned out to be 13.2 nM.
